In patent publication US20070049564A1 (Wyeth, priority 2005, published 2007):
In brackets after ≈: the same amount, converted by molar mass. Like-named read-outs stand apart in the source and are kept apart here.

How the values were obtained:
Staph. aureus Smith [1] = assay: In vitro activity (MIC) against Staph. aureus Smith; type: cell-based; conditions: Staphylococcus aureus; Table 8
Staph. aureus Smith [2] = assay: In vivo activity (oral, iv; ED50) against Staph. aureus Smith in mice
Staph. = assay: Range of MIC for Staph. strains, including MRSA; conditions: Staphylococcus aureus
E. coli #311 = assay: In vivo activity (oral, iv; ED50) against E. coli in mice; conditions: Escherichia coli
Description: . […] Smith and E. Coli #311 in mammals.
Results of the tests (MIC, oral and IV) are list in Table 7.

E. coli = assay: Range of MIC for E. coli strains; conditions: Escherichia coli
[3] = Staphylococcus aureus, in Mus musculus, iv, read-out: ED50 SIV (Staph aureus Smith)
[4] = Staphylococcus aureus, in Mus musculus, po, read-out: ED50 SOD (Staph aureus Smith)
[5] = Staphylococcus aureus, in Mus musculus, po, read-out: ED50 Staph Smith SOD
[6] = iv, read-out: ED50 Staph Smith SIV
[7] = MRSA, read-out: Range of MIC, Staph (Mouse Serum)
[8] = MRSA, read-out: Range of MIC, Staph (Water)
[9] = MRSA, read-out: Range of MIC, Staph. (mouse serum)
[10] = MRSA, read-out: Range of MIC, Staph. (water)
[11] = 20 h, read-out: Range of MIC, E. coli (Mouse Serum)
[12] = read-out: Range of MIC, E. coli (mouse serum)
[13] = read-out: Range of MIC, E. coli (Water)

MIC (Staph. aureus Smith [1]) [µg/mL]	MIC (Staph.; [7]) [µg/mL]	MIC (Staph.; [8]) [µg/mL]	MIC (Staph.; [9]) [µg/mL]	MIC (Staph.; [10]) [µg/mL]	MIC (E. coli; [11]) [µg/mL]	MIC (E. coli; [12]) [µg/mL]	MIC (E. coli; [13]) [µg/mL]	Structure (SMILES)	ED50 (Staph. aureus Smith [2]; [3]) [mg/kg]	ED50 (Staph. aureus Smith [2]; [4]) [mg/kg]	ED50 (Staph. aureus Smith [2]; [5]) [mg/kg]	ED50 (Staph. aureus Smith [2]; [6]) [mg/kg]	other results
1 (≈ 1.32 µM)	0.5 to 4 (≈ 0.66 to 5.28 µM)	1 to 8 (≈ 1.32 to 10.6 µM)	0.5 to 4 (≈ 0.66 to 5.28 µM)	1 to 8 (≈ 1.32 to 10.6 µM)	0.5 to 2 (≈ 0.66 to 2.64 µM)	0.5 to 2 (≈ 0.66 to 2.64 µM)	–	CCCCCCC(=O)OCOC(=O)N(CCC)CC(=O)Nc1cc(N(C)C)c2c(c1O)C(=O)C1=C(O)[C@]3(O)C(=O)C(C(N)=O)=C(O)[C@@H](N(C)C)[C@@H]3C[C@@H]1C2 [Example 19, ({[(2-{[(5aR,6aS,7S,10aS)-9-(aminocarbonyl)-4,7-bis(dimethylamino)-1,8,10a,11-tetrahydroxy-10,12-dioxo-5,5a,6,6a,7,10,10a,12-octahydrotetracen-2-yl]amino}-2-oxoethyl)(propyl)amino]carbonyl}oxy)methyl heptanoate]	0.31	8.05	8.05	0.31	MIC (Staph.; read-out: Minimum inhibitory concentration (MIC), Staph (Human Serum)): 0.12 to 1 µg/mL (≈ 0.158 to 1.32 µM); MIC (Staph.; read-out: Minimum inhibitory concentration (MIC), Staph (Water)): 0.25 to 4 µg/mL (≈ 0.33 to 5.28 µM); ED50 (E. coli #311; single intravenous dose (SIV), read-out: ED50 E. coli #311 SIV): > 2 mg/kg; ED50 (E. coli #311; single oral dose (SOD), read-out: ED50 E. coli #311 SOD): > 32 mg/kg; MIC (E. coli; read-out: Minimum inhibitory concentration (MIC), E. coli (Human Serum)): 8 to 32 µg/mL (≈ 10.6 to 42.2 µM)
4 (≈ 5.38 µM)	2 to 4 (≈ 2.69 to 5.38 µM)	2 to 4 (≈ 2.69 to 5.38 µM)	2 to 4 (≈ 2.69 to 5.38 µM)	2 to 4 (≈ 2.69 to 5.38 µM)	4 to 8 (≈ 5.38 to 10.8 µM)	4 to 8 (≈ 5.38 to 10.8 µM)	8 to 64 (≈ 10.8 to 86 µM)	CCCN(CC(=O)Nc1cc(N(C)C)c2c(c1O)C(=O)C1=C(O)[C@]3(O)C(=O)C(C(N)=O)=C(O)[C@@H](N(C)C)[C@@H]3C[C@@H]1C2)C(=O)OCOC(=O)CC(C)(C)C [Example 35, ({[(2-{[(5aR,6aS,7S,10aS)-9-(aminocarbonyl)-4,7-bis(dimethylamino)-1,8,10a,11-tetrahydroxy-10,12-dioxo-5,5a,6,6a,7,10,10a,12-octahydrotetracen-2-yl]amino}-2-oxoethyl)(propyl)amino]carbonyl}oxy)methyl 3,3-dimethylbutanoate]	0.43	3.5	3.5	0.43	MIC (E. coli; read-out: Range of MIC, E. coli (water)): 8 to 64 µg/mL (≈ 10.8 to 86 µM)
8 (≈ 10.6 µM)	2 to 4 (≈ 2.64 to 5.28 µM)	4 to 16 (≈ 5.28 to 21.1 µM)	–	–	2 to 8 (≈ 2.64 to 10.6 µM)	–	8 to 32 (≈ 10.6 to 42.2 µM)	CCCCN(CC(=O)Nc1cc(N(C)C)c2c(c1O)C(=O)C1=C(O)[C@]3(O)C(=O)C(C(N)=O)=C(O)[C@@H](N(C)C)[C@@H]3C[C@@H]1C2)C(=O)OCOC(=O)CC(C)(C)C [Example 36, ({[(2-{[(5aR,6aS,7S,10aS)-9-(aminocarbonyl)-4,7-bis(dimethylamino)-1,8,10a,11-tetrahydroxy-10,12-dioxo-5,5a,6,6a,7,10,10a,12-octahydrotetracen-2-yl]amino}-2-oxoethyl)(butyl)amino]carbonyl}oxy)methyl 3,3-dimethylbutanoate]	0.84	5.15	5.15	0.84	MIC (Staph.; MRSA, read-out: Minimum inhibitory concentration (MIC), Staph. (mouse serum)): 2 to 4 µg/mL (≈ 2.64 to 5.28 µM); MIC (Staph.; MRSA, read-out: Minimum inhibitory concentration (MIC), Staph. (water)): 4 to 16 µg/mL (≈ 5.28 to 21.1 µM); MIC (E. coli; read-out: Minimum inhibitory concentration (MIC), E. coli (mouse serum)): 2 to 8 µg/mL (≈ 2.64 to 10.6 µM); MIC (E. coli; read-out: Minimum inhibitory concentration (MIC), E. coli (water)): 8 to 32 µg/mL (≈ 10.6 to 42.2 µM)
